Data on one substance can be found in US6569846B1, “Palladium-substituted bacteriochlorophyll derivatives and use thereof” (Yeda Research and Development Co. Ltd., priority 1998, dated 2003).

The test system of this experiment is M2R mouse melanoma cells. The experiment in a line: Phototoxicity on M2R cells (Example 10, [3H]-thymidine incorporation). In kind it is cell-based. To be noted: pigments dissolved directly in culture medium containing 10% serum. Here is the method: The diluted pigments were added and the cells were incubated in the dark for four hours at 37° C. Prior to illumination, the cells were washed once and replaced with fresh culture medium. The plates were then illuminated from the bottom for 10 minutes at room temperature and placed in the culture incubator at 37° C. in the dark. […] The following control systems were used: Dark control—untreated cells kept in the dark; Light control—cells not treated with sensitizer that were illuminated; Dark toxicity—cells treated with pigment but kept in the dark.
(In general: Incorporation of labelled thymidine or its analogues reports DNA synthesis.)

“Pd-Bacteriopheophorbide a ethyl ester [Pd-BPheid-ethyl ester, reference compound]”: the “concentration up to which not active at all (highest concentration tested)” value is more than 1 µM.
